Test results taken from patent US12281119B2, “Imidazo[2,1-f][1,2,4]triazin-4-amine derivatives as TLR7 agonist” (BEIGENE, LTD., priority 2019, dated 2025).
pEC50: −log10 of the molar value.

Biological target: T1, human TLR7 (Homo sapiens, UniProt Q9NYK1)
T1 sequence (Q9NYK1 27-1049): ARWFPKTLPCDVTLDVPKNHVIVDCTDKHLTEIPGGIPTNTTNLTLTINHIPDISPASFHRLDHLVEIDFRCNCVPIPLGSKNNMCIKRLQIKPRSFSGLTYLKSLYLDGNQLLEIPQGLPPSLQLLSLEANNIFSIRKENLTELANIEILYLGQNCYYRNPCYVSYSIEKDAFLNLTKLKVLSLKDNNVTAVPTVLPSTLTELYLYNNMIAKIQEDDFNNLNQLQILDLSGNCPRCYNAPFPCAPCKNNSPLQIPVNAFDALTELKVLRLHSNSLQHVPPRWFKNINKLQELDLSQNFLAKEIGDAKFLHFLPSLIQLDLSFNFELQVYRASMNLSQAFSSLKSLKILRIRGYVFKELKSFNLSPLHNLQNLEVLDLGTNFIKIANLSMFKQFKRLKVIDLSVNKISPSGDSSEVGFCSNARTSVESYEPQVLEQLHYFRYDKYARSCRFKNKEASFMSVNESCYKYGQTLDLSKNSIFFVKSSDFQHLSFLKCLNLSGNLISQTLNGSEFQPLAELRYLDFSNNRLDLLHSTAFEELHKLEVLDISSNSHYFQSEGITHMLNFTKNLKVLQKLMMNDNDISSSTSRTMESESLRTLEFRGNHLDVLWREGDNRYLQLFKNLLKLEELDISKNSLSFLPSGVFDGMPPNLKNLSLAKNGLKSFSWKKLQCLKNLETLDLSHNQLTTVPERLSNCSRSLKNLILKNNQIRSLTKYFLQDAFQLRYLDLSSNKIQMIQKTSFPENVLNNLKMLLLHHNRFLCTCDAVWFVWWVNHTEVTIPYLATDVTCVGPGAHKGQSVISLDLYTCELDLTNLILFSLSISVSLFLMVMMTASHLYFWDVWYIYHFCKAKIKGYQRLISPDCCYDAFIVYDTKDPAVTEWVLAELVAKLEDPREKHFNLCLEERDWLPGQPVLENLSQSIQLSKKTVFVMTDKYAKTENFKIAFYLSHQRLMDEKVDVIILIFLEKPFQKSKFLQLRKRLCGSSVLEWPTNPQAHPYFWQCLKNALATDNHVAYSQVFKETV
Test: HEK293-Blue hTLR7 reporter assay (QUANTI-BLUE, SEAP readout)
Assay type: cell-based
Design: host or cells: HEK293 (HEK-Blue-hTLR7)
Details: HEK-Blue-hTLR7 cells, QUANTI-BLUE assay (A1-A76), 24 hrs
Method: HEK293-Blue hTLR7 Reporter Assay:
HEK-Blue-hTLR7 cell line (Invivogen, Cat. No. hkb-htlr7) was designed so that the expression of the secreted embryonic alkaline phosphatase (SEAP) was induced by activating NF-κ and AP-1 via stimulating human TLR7 with TLR7 agonists.
HEK-Blue-hTLR7 cells were seeded at a density of 4×10^4 cells/well in a volume of 180 μL in a 96-well plate in DMEM (Cat. No. 11965-092) supplemented with 10% (v/v) heat-inactivated fetal bovine serum (FBS) (Gibco, 10099-1441), 100 U/ml penicillin and 100 μg/ml streptomycin (Gibco, 15140122) containing […], […] and 10% (v/v) heat-inactivated fetal bovine serum. The cells were settled for 5 hrs, then treated with increasing amounts of tested compounds at 37° C. for 24 hrs. Then 20 μL of the supernatant from each well was incubated with 180 uL Quanti-blue substrate solution at 37° C. for 10-30 mins before the activity of the SEAP was determined at 620-655 nm using a spectrophotometer. The EC50 value for each compound was calculated with GraphPad Prism software using the sigmoidal dose-response function.

**Q.** With `CCCCOc1nc(N)c2ncc(Cc3ccc(CC4CCNCC4)cc3)n2n1` [Compound A33, 2-butoxy-7-(4-(piperidin-4-ylmethyl)benzyl)imidazo[2,1-f][1,2,4]triazin-4-amine] as the compound, how does the pEC50 read?
**A.** 5.98

**Q.** `CCCCOc1nc(N)c2ncc(Cc3cnc(OCCCN(C)C)c(Cl)c3)n2n1` [Compound A34, 2-butoxy-7-((5-chloro-6-(3-(dimethylamino)propoxy)pyridin-3-yl)methyl)imidazo[2,1-f][1,2,4]triazin-4-amine] was tested. Which pEC50 did it give?
**A.** 5.47

**Q.** How did the pEC50 turn out when `CCCCOc1nc(N)c2ncc(Cc3ccc(OCCCN(C)C)c(F)c3)n2n1` [Compound A35, 2-butoxy-7-(4-(3-(dimethylamino)propoxy)-3-fluorobenzyl)imidazo[2,1-f][1,2,4]triazin-4-amine] was run?
**A.** 5.68

**Q.** `CCCCOc1nc(N)c2ncc(Cc3ccc(OCCCN(C)C)cc3F)n2n1` [Compound A36, 2-butoxy-7-(4-(3-(dimethylamino)propoxy)-2-fluorobenzyl)imidazo[2,1-f][1,2,4]triazin-4-amine] was tested. Which pEC50 did it give?
**A.** 6.06

**Q.** With `CCCCOc1nc(N)c2ncc(Cc3ccc(OCCN)nc3)n2n1` [Compound A37, 7-((6-(2-aminoethoxy)pyridin-3-yl)methyl)-2-butoxyimidazo[2,1-f][1,2,4]triazin-4-amine] as the compound, how does the pEC50 read?
**A.** < 5.00

**Q.** With `CCCCOc1nc(N)c2ncc(Cc3ccc(OC4C[C@H]5CC[C@@H](C4)N5)cc3F)n2n1` (stereo partly drawn) [Compound A38, 7-(4-(((1R,5S)-8-azabicyclo[3.2.1]octan-3-yl)oxy)-2-fluorobenzyl)-2-butoxyimidazo[2,1-f][1,2,4]triazin-4-amine] as the compound, how does the pEC50 read?
**A.** 5.73

**Q.** `CCCCOc1nc(N)c2ncc(Cc3ccc(CN4CCN(C(=O)CN(C)C)CC4)cc3)n2n1` [Compound A39, 1-(4-(4-((4-amino-2-butoxyimidazo[2,1-f][1,2,4]triazin-7-yl)methyl)benzyl)piperazin-1-yl)-2-(dimethylamino)ethan-1-one] was tested. Which pEC50 did it give?
**A.** 6.27

**Q.** With `CCCCOc1nc(N)c2ncc(Cc3cnc(OC4CCNCC4)c(Cl)c3)n2n1` [Compound A40, 2-butoxy-7-((5-chloro-6-(piperidin-4-yloxy)pyridin-3-yl)methyl)imidazo[2,1-f][1,2,4]triazin-4-amine] as the compound, how does the pEC50 read?
**A.** 6.22

**Q.** With `CCCCOc1nc(N)c2ncc(Cc3ccc(CN4C[C@@H]5C[C@H]4CN5)cc3)n2n1` [Compound A41, 7-(4-(((1S,4S)-2,5-diazabicyclo[2.2.1]heptan-2-yl)methyl)benzyl)-2-butoxyimidazo[2,1-f][1,2,4]triazin-4-amine] as the compound, how does the pEC50 read?
**A.** 5.80

**Q.** `CCCCOc1nc(N)c2ncc(Cc3ccc(CCN4CCCC4)cc3)n2n1` [Compound A42, 2-butoxy-7-(4-(2-(pyrrolidin-1-yl)ethyl)benzyl)imidazo[2,1-f][1,2,4]triazin-4-amine] was tested. Which pEC50 did it give?
**A.** 5.86

**Q.** `CCCCOc1nc(N)c2ncc(Cc3ccc(CN4CCC(N(C)C)C4)cc3)n2n1` (stereo not drawn) [Compound A44, 2-butoxy-7-(4-((3-(dimethylamino)pyrrolidin-1-yl)methyl)benzyl)imidazo[2,1-f][1,2,4]triazin-4-amine] was tested. Which pEC50 did it give?
**A.** 5.99

**Q.** With `CCCCOc1nc(N)c2ncc(Cc3cnc(OCC(C)(C)CN(C)C)c(Cl)c3)n2n1` [Compound A45, 2-butoxy-7-((5-chloro-6-(3-(dimethylamino)-2,2-dimethylpropoxy)pyridin-3-yl)methyl)imidazo[2,1-f][1,2,4]triazin-4-amine] as the compound, how does the pEC50 read?
**A.** 5.42

**Q.** `CCCCOc1nc(N)c2ncc(Cc3ccc(CN)cc3)n2n1` [Compound A46, 7-(4-(aminomethyl)benzyl)-2-butoxyimidazo[2,1-f][1,2,4]triazin-4-amine] was tested. Which pEC50 did it give?
**A.** < 5.00

**Q.** `CCCCOc1nc(N)c2ncc(Cc3ccc(CN4CCC(Oc5ccccc5)CC4)cc3)n2n1` [Compound A47, 2-butoxy-7-(4-((4-phenoxypiperidin-1-yl)methyl)benzyl)imidazo[2,1-f][1,2,4]triazin-4-amine] was tested. Which pEC50 did it give?
**A.** < 5.00

**Q.** How did the pEC50 turn out when `Cc1cc(COc2nc(N)c3ncc(Cc4ccc(CN5CCCC5)cc4)n3n2)no1` [Compound A48, 2-((5-methylisoxazol-3-yl)methoxy)-7-(4-(pyrrolidin-1-ylmethyl)benzyl)imidazo[2,1-f][1,2,4]triazin-4-amine] was run?
**A.** < 5.00

**Q.** How did the pEC50 turn out when `CCCCOc1nc(N)c2ncc(Cc3ccc(OC4C[C@H]5CC[C@@H](C4)N5CC)cc3F)n2n1` (stereo partly drawn) [Compound A49, 2-butoxy-7-(4-(((1R,5S)-8-ethyl-8-azabicyclo[3.2.1]octan-3-yl)oxy)-2-fluorobenzyl)imidazo[2,1-f][1,2,4]triazin-4-amine] was run?
**A.** 5.36

**Q.** How did the pEC50 turn out when `CCCCOc1nc(N)c2ncc(Cc3ccc(OC)cn3)n2n1` [Compound A50, 2-butoxy-7-((5-methoxypyridin-2-yl)methyl)imidazo[2,1-f][1,2,4]triazin-4-amine] was run?
**A.** < 5.00

**Q.** With `CCCCOc1nc(N)c2ncc(Cc3cccc(OC)n3)n2n1` [Compound A51, 2-butoxy-7-((6-methoxypyridin-2-yl)methyl)imidazo[2,1-f][1,2,4]triazin-4-amine] as the compound, how does the pEC50 read?
**A.** < 5.00

**Q.** With `Nc1nc(N)c2ncc(Cc3ccc(CN4CCCC4)cc3)n2n1` [Compound A52, 7-(4-(pyrrolidin-1-ylmethyl)benzyl)imidazo[2,1-f] [1,2,4]triazine-2,4-diamine] as the compound, how does the pEC50 read?
**A.** < 5.00

**Q.** With `CCCCOc1nc(N)c2ncc(Cc3ccc(OCC(C)(C)CN(C)C)nc3)n2n1` [Compound A53, 2-butoxy-7-((6-(3-(dimethylamino)-2,2-dimethylpropoxy)pyridin-3-yl)methyl)imidazo[2,1-f][1,2,4]triazin-4-amine] as the compound, how does the pEC50 read?
**A.** 5.84

**Q.** How did the pEC50 turn out when `CC(C)COc1nc(N)c2ncc(Cc3ccc(CN4CCCC4)cc3)n2n1` [Compound A54, 2-isobutoxy-7-(4-(pyrrolidin-1-ylmethyl)benzyl)imidazo[2,1-f][1,2,4]triazin-4-amine] was run?
**A.** < 5.00

**Q.** `CCCCOc1nc(N)c2ncc(Cc3ncccc3OC)n2n1` [Compound A55, 2-butoxy-7-((3-methoxypyridin-2-yl)methyl)imidazo[2,1-f][1,2,4]triazin-4-amine] was tested. Which pEC50 did it give?
**A.** < 5.00

**Q.** How did the pEC50 turn out when `CCCCOc1nc(N)c2ncc(C(O)c3ncccc3OC)n2n1` (stereo not drawn) [Compound A56, (4-amino-2-butoxyimidazo[2,1-f][1,2,4]triazin-7-yl)(3-methoxypyridin-2-yl)methanol] was run?
**A.** < 5.00

**Q.** With `CCCCOc1nc(N)c2ncc(Cc3ccc(OCCCN(C)C)c(C(=O)OC)c3)n2n1` [Compound A57, methyl 5-((4-amino-2-butoxyimidazo[2,1-f][1,2,4]triazin-7-yl)methyl)-2-(3-(dimethylamino)propoxy)benzoate] as the compound, how does the pEC50 read?
**A.** 6.43

**Q.** How did the pEC50 turn out when `CCCCOc1nc(N)c2ncc(Cc3ccc(OCCN(C)C(C)=O)nc3)n2n1` [Compound A59, N-(2-((5-((4-amino-2-butoxyimidazo[2,1-f][1,2,4]triazin-7-yl)methyl)pyridin-2-yl)oxy)ethyl)-N-methylacetamide] was run?
**A.** < 5.00

**Q.** `CCCCOc1nc(N)c2ncc(Cc3ccc(OC4CCN(CC)C4)cc3F)n2n1` (stereo not drawn) [Compound A60, 2-butoxy-7-(4-((1-ethylpyrrolidin-3-yl)oxy)-2-fluorobenzyl)imidazo[2,1-f][1,2,4]triazin-4-amine] was tested. Which pEC50 did it give?
**A.** 6.61

**Q.** With `CCCCOc1nc(N)c2ncc(Cc3ccc(OC4CCNC4)cc3F)n2n1` (stereo not drawn) [Compound A61, 2-butoxy-7-(2-fluoro-4-(pyrrolidin-3-yloxy)benzyl)imidazo[2,1-f][1,2,4]triazin-4-amine] as the compound, how does the pEC50 read?
**A.** 6.74

**Q.** With `CCCCOc1nc(N)c2ncc(Cc3ccc(Cn4cncn4)cc3)n2n1` [Compound A62, 7-(4-((1H-1,2,4-triazol-1-yl)methyl)benzyl)-2-butoxyimidazo[2,1-f][1,2,4]triazin-4-amine] as the compound, how does the pEC50 read?
**A.** < 5.00

**Q.** `CCCCOc1nc(N)c2ncc(Cc3ccc(OCCCNC)cc3)n2n1` [Compound A63, 2-butoxy-7-(4-(3-(methylamino)propoxy)benzyl)imidazo[2,1-f][1,2,4]triazin-4-amine] was tested. Which pEC50 did it give?
**A.** 6.00

**Q.** How did the pEC50 turn out when `Nc1nc(NCc2ccco2)nn2c(Cc3ccc(CN4CCCC4)cc3)cnc12` [Compound A64, N^2-(furan-2-ylmethyl)-7-(4-(pyrrolidin-1-ylmethyl)benzyl)imidazo[2,1-f][1,2,4]triazine-2,4-diamine] was run?
**A.** 5.40
